Experimental data reported in patent US5989521A, “Method for augmenting a decreased level of reduced glutathione in the lung” (The United States of America as represented by the …, priority 1991, dated 1999).
Where two headings read alike, the source gives them in different places.

Experiments:
[1] = in vivo
From the text: Study Population. The study population included 13 male and 1 female HIV-seropositive individuals (average age 32±2 yr)(all data are presented as mean ± standard error of the mean; all statistical comparisons were made using the two-tailed Student's t-test). The diagnosis of HIV infection was confirmed by ELISA and Western blot analysis. All belonged to defined risk groups (13 homosexuals, 1 with heterosexual contact with an infected partner). None were smokers, 9 were untreated, and 5 were receiving azidothymidine, and two were receiving once monthly pentamidine by aerosol.
Biologic Samples. Venous plasma and bronchoalveolar lavage fluid were obtained by standard technique (Saltini, C. et al. (1984) Am Rev Resp Dis 130:650-658). Portions of the lavage fluid were taken for glutathione assays (see below), cell counts (total cell and CD4+ and CD8+ subtypes), and for cytocentrifuge preparations for differential counts. The cells were pelleted and the supernatant was used to quantify the amount of ELF recovered using the urea method (Rennard, S.I. et al. (1986) J Appl Physiol 60:532-538).
Study Design. […]
Glutathione Levels and Form. Glutathione levels in venous plasma, and bronchoalveolar lavage fluid were quantified with minor modifications of standard methods, as previously described (Buhl, R. et al (1989) Lancet 2:1294-1298).

[2] = in vivo; remark: listed apart in the source
From the text: To evaluate possible toxicity of the glutathione aerosol, symptoms, physical examination, routine blood studies, chest x-ray, electrocardiogram, renal function, arterial blood gases, and tests of pulmonary function (forced vital capacity, forced expiratory volume in one second, total lung capacity, diffusing capacity) were followed carefully throughout the study. In addition, visual examination of the respiratory mucosa and analysis of differential cell count in bronchoalveolar lavage fluid were performed before the first aerosol and after administration of the last aerosol.
Study Design. Venous plasma and bronchoalveolar lavage fluid were obtained before GSH administration. An aerosol of 600 mg GSH in 4 ml of saline was then administered over a 25 min period twice a day for three days. Following the last aerosol, venous plasma and bronchoalveolar lavage fluid were again obtained at intervals up to 3 hr after the last aerosol. All measurements were carried out in duplicate.

[3] = tested on: cytotoxic T-lymphocyte cell line CT-4R
Method: (§1) T-lymphocyte Proliferation Assays. Cell proliferation in the presence of pre-aerosol compared to post-aerosol concentrations of reduced glutathione was tested on the cytotoxic T-lymphocyte cell lines CT-4R and CTLL-2 (Liang, C-M. et al. (1989) J Biol Chem 264:13519-13523). In 96-well flat bottom plates were placed 50,000 cells of the respective cell lines, suspended in 200 μl Dulbecco's Modified Eagle Medium with 10% fetal calf serum, with either 150 μM or 280 μM reduced glutathione added. The IL-2 dependent cell line CTLL-2 had 0.3 units/ml IL-2 (Genzyme) added in each well. After 18 hr culture in a 10% CO2 incubator at 37° C., 0.5 μCi of ^3 H-thymidine was added for 4 hr, followed by harvesting of cells onto glass fiber filters and scintillation counting for 1 minute. All proliferation assays were done in triplicate.

[4] = tested on: cytotoxic T-lymphocyte cell line CTLL-2; conditions: 0.3 units/ml IL-2
Method: as §1

[5] = Method: (§2) Ten individuals with IPF (6 male, 4 female, 46±3 yr) defined by standard clinical criteria (Crystal, R. G. et al. (1984) N. Engl. J. Med. 310: 154-166, and 310: 235-244; Turner-Warwick, M. et al. (1980) Thorax. 35: 171-180) received aerosolized GSH; 19 normal nonsmokers (14 male, 5 female, 36±3 yr) (Buhl, R. et al. (1989) Lancet. 2: 1294-1298) served as controls for GSH levels. […] An aerosol of 600 mg GSH was administered every 12 hr for 3 days. Respiratory ELF, obtained by lavage, was evaluated before therapy, and 1 hr after the first or last (sixth) aerosol, and plasma before and 1 hr after the last aerosol. Total glutathione, oxidized glutathione (GSSG) and reduced glutathione (GSH) levels in ELF and plasma were quantified as previously described (Buhl, R. et al. (1990) Proc. Natl. Acad. Sci. USA. 87:4063-4067; Buhl, R. et al. (1989) Lancet. 2: 1294-1298). Spontaneous O2^- release from adherent alveolar macrophages was measured by the reduction of ferricytochrome C (Buhl, R. et al. (1990) Proc. Natl. Acad. Sci. USA. 87:4063-4067). All data are presented as mean ± standard error of the mean. The two-tailed Student's t-test was used to compare ELF glutathione levels in normal and IPF individuals and the results presented as exact p values and degrees of freedom (df). The Wilcoxon paired nonparametric test was used to compare pre- and post-aerosol therapy ELF GSH levels and spontaneous O2^- release by alveolar macrophages, and the results presented as exact p values.
alveolar macrophages = conditions: 600 mg twice daily for 3 days, 1 hr after last dose, all individuals (p=0.02)
Method: as §2

Remark: listed apart in the source
[6] = preparation reconstituted in 0.9% saline; cited from earlier work
[7] = intravenous administration; cited from earlier work

With N[C@@H](CCC(=O)N[C@@H](CS)C(=O)NCC(=O)O)C(=O)O [GSH, L-γ-glutamyl-L-cysteinyl-glycine] the “oxidized glutathione as percentage of total glutathione in ELF” value [1] was 44±18%, the “inflammation of the lower respiratory tract” value [2] was “did not result in inflammation” and the “physical examination and all clinical studies” value [2] was “remained stable”. For the same compound, the “pulmonary function tests and arterial blood gases” value [2] was “unchanged”, the “proliferation (3H-thymidine incorporation)” value (“proliferation” below) ([3]; 150 μM reduced glutathione (pre-therapy concentration)) was 7478±550 cpm and the “proliferation” value ([3]; 280 μM reduced glutathione (post-therapy concentration)) was 10,752±376 cpm. The “proliferation” value ([4]; CTLL-2, 150 μM reduced glutathione) was 5077±69 cpm, the “proliferation” value ([4]; CTLL-2, 280 μM reduced glutathione) was 5792±219 cpm and the “adverse effects associated with GSH aerosol administration” value ([5]; 600 mg every 12 hr for 3 days) was “No adverse effects”. For the same compound, the “ELF oxidized glutathione compared to baseline” value ([5]; 600 mg twice daily for 3 days, 1 hr after last dose, all individuals (p=0.02)) was “significant increase”, the “total glutathione in ELF versus pre-therapy” value ([5]; 1 hr after the first aerosol of 600 mg GSH (p=0.005)) was “increased” and the “plasma glutathione levels following aerosolization” value ([5]; 1 hr after the last aerosol (p=0.59)) was “did not change”. The “average level of total glutathione in ELF versus pre-therapy” value ([5]; after repeated dosing for 3 days, 1 hr after last aerosol (p=0.55)) was “higher than the pre-therapy level, but not significantly so”, the “spontaneous O2- release by alveolar macrophages” value (alveolar macrophages) was “decrease” and the “mass median aerodynamic diameter of the aerosol droplets” value (150 mg/ml GSH in 0.9% NaCl, nebulizer at 40 psi, laser particle-size analysis) was 2.8 μm. For the same compound, the “glutathione in the reduced form” value (in the aerosolized droplets) was 97.0±0.6%, the “glutathione in the reduced form” value (pre-aerosol preparations) was 98.2±0.1% and the “effect of aerosolization on the form of the GSH” value [6] was “did not alter the form”. The serum half-life [7] was under 2 min.
